From patent EP0332295A2, “Novel imidazole derivative” (priority 1988, dated 1989)

Each compound was assayed on mice (assay: Anti-hypoxia action (hypobaric hypoxia, existence time at 180 mmHg, life prolongation ratio)). Conditions: Mus musculus, ip; male ddy mice, administered in the abdominal cavity at 25 mg/kg, 30 minutes before pressure reduction to 180 mmHg; ratio of existence time to saline control (cut-off 15 minutes).
Assay type: in vivo
Experimental: With respect to each of the above-mentioned compounds (compounds Nos. 1 through 54), the anti-hypoxia action was tested according to the following method and was evaluated by the life prolongation ratio.
Male mice if the ddy-line, which were 5 to 8 weeks old, were used as test animals, and they were divided into groups, each consisting of 7 to 10 mice. The compound to be tested was dissolved in a physiological saline solution. If the compound to be tested was insoluble, the compound was suspended in 1% gum arabic. The solution or suspension was administered in the abdominal cavity at a does of 25 mg/kg and when 30 minutes had passed from the point of the administration, the mice were independently placed one by one into a desiccator (capacity = 1 liter) and the pressure in the desiccator was reduced to 180 mmHg by a vacuum pump.
The period of from the point of initiation of the reduction of the pressure to the point of the stop of breathing was regarded as the existence time. When the mouse lived for more than 15 minutes, the calculation was done while regarding the existence time as being 15 minutes.
The significant difference test of the existence time was carried out according to the student t-test method using controls to which a physiological saline solution alone had been administered. The ratio of the existence time of the sample-administered group to the existence time of the physiological saline solution-administered control group was calculated as the life prolongation ratio.

Row | Structure (SMILES) | response vs control in vivo at 25 mg/kg
1 | CCN(CC)C(=O)n1cnc(Cc2c(C)cccc2C)c1 [compound 13] | 281%
2 | Cc1ccccc1-c1c[nH]c(SC(=O)N(C)C)n1 [compound 45] | 192%
3 | CN(C)C(=O)Sc1nc(-c2ccccc2)cn1-c1ccccc1 [compound 27] | 146%
4 | CN(C)C(=O)Sc1nc(-c2ccccc2)cn1-c1ccc([N+](=O)[O-])cn1 [compound 28, 2-(N,N-dimethylcarbamoylthio)-1-(5-nitropyridinyl)-4-phenylimidazole] | 102%
5 | CN(C)C(=O)n1cnc(Cc2ccccc2)c1 [compound 1, 4-benzyl-1-(N,N-dimethylcarbamoyl)imidazole] | 85%
6 | Cc1[nH]c(SC(=O)N(C)C)nc1-c1ccccc1 [compound 42] | 192%
7 | CN(C)C(=O)Sc1nc(-c2ccccc2)cn1C [compound 22] | 230%
8 | CC(=O)n1cc(-c2ccccc2)nc1SC(=O)N(C)C [compound 32] | 281%
9 | COc1ccc(-c2c[nH]c(SC(=O)N(C)C)n2)cc1 [compound 47] | 165%
10 | CN(C)C(=O)Sc1nc(-c2ccccc2)cn1C(=O)N(C)C [compound 30, 1-(N,N-dimethylcarbamoyl)-2-(N,N-dimethylcarbamoylthio)-4-phenylimidazole] | 115%
11 | Cc1cccc(C)c1Cc1cn(C(=O)N(C)C(C)C)cn1 [compound 9] | 466%
12 | CCn1c(=O)sc2nc(-c3ccccc3)cn2c1=O [compound 54] | 137%
13 | CC(C)n1cc(-c2ccccc2)nc1SC(=O)N(C)C [compound 25] | 119%
14 | CCOC(=O)n1cnc(Cc2c(C)cccc2C)c1 [compound 18] | 182%
15 | CN(C)C(=O)Sc1nc(-c2ccccc2)cn1C1CCCCC1 [compound 26] | 132%
16 | CN(C)C(=O)Sc1nc(-c2ccccc2)c[nH]1 [compound 21, 2-(N,N-dimethylcarbamoylthio)-4-phenylimidazole] | 283%
17 | CON(C)C(=O)n1cnc(Cc2c(C)cccc2C)c1 [compound 12] | 109%
18 | Cc1cccc(C)c1Cc1cn(C(=O)N(C)C2CCCCC2)cn1 [compound 10] | 253%

Row | Structure (SMILES) | response vs control in vivo at 25 mg/kg
19 | C=CCN(C)C(=O)n1cnc(Cc2c(C)cccc2C)c1 [compound 11] | 255%
20 | CN(C)C(=O)Sc1nc(-c2ccc(-c3ccccc3)cc2)c[nH]1 [compound 49] | 127%
21 | CCn1cc(-c2ccccc2)nc1SC(=O)N(C)C [compound 23] | 264%
22 | Cc1cccc(C)c1Cc1cn(C(=S)N(C)C)cn1 [compound 20] | 243%
23 | Cc1cccc(C)c1Cc1cn(C(=O)N(C)C)cn1 [compound 2] | 305%
24 | CCCn1cc(-c2ccccc2)nc1SC(=O)N(C)C [compound 24] | 163%
25 | CN(C)C(=O)Sc1nccn1-c1ccccc1 [compound 50] | 127%
26 | Cn1c(=O)sc2nc(-c3ccccc3)cn2c1=O [compound 53, 3-methyl-7-phenyl-1,3,5-thiadiazino[3,2-a]imidazole-2,4(3H)-dione] | 145%
27 | CC(=O)n1cc(-c2ccccc2)nc1SC(=O)N(C)C(C)C [compound 33] | 127%
28 | CCOC(=O)n1cc(-c2ccccc2)nc1SC(=O)N(C)C [compound 31] | 123%
29 | Cc1cccc(C)c1Cc1cn(C(=O)N2CCCCC2)cn1 [compound 14] | 270%
30 | Cc1cccc(C)c1Cc1cn(C(=O)N2CCOCC2)cn1 [compound 17] | 165%
31 | O=C(Sc1nc(-c2ccccc2)cn1C(=O)N1CCCCC1)N1CCCCC1 [compound 38] | 113%
32 | CCOC(=O)c1[nH]c(SC(=O)N(C)C)nc1-c1ccccc1 [compound 44] | 143%
33 | Cc1cc(C)c(Cc2cn(C(=O)N(C)C)cn2)c(C)c1 [compound 4] | 184%
34 | CCc1[nH]c(SC(=O)N(C)C)nc1-c1ccccc1 [compound 43] | 121%
35 | CN(C)C(=O)Sc1nc(-c2ccccc2)cn1-c1ncccc1[N+](=O)[O-] [compound 29] | 110%

Same assay, conditions: male ddy mice, administered in the abdominal cavity at 25 mg/kg, 30 minutes before pressure reduction to 180 mmHg; ratio of existence time to saline control (cut-off 15 minutes)

Row | Structure (SMILES) | Life Prolongation Ratio
36 | CN(C)C(=O)n1cnc(C[n+]2ccccc2)c1 [compound 19] | 1.09

These compounds were tested on mice in the same assay as above. Conditions: Mus musculus, ip; male ddy mice, administration dose = 12.5 mg/kg in the abdominal cavity, 30 minutes before pressure reduction to 180 mmHg; ratio of existence time to saline control.
Assay type: in vivo

Row | Structure (SMILES) | response vs control in vivo at 12.5 mg/kg
37 | O=C(Sc1nc(-c2ccccc2)c[nH]1)N1CCCc2ccccc21 [compound 41] | 76%
38 | Cc1ccc(-c2c[nH]c(SC(=O)N(C)C)n2)cc1 [compound 46] | 95%
39 | O=C(Sc1nc(-c2ccccc2)c[nH]1)N1CCSCC1 [compound 40] | 93%
40 | O=C(Sc1nc(-c2ccccc2)c[nH]1)N1CCCCC1 [compound 37] | 85%
41 | O=C(Sc1nc(-c2ccccc2)c[nH]1)N1CCCC1 [compound 36] | 94%
42 | CCCN(CCC)C(=O)Sc1nc(-c2ccccc2)c[nH]1 [compound 35] | 87%
43 | CN(C)C(=O)Sc1nc(-c2ccc(Cl)cc2)c[nH]1 [compound 48] | 115%
44 | CCN(CC)C(=O)Sc1nc(-c2ccccc2)c[nH]1 [compound 34] | 100%
45 | O=C(Sc1nc(-c2ccccc2)c[nH]1)N1CCOCC1 [compound 39] | 104%

Same assay, conditions: Mus musculus, ip; male ddy mice, administration dose = 50 mg/kg in the abdominal cavity, 30 minutes before pressure reduction to 180 mmHg; ratio of existence time to saline control

Row | Structure (SMILES) | response vs control in vivo at 50 mg/kg
46 | CN(C)C(=O)Sc1nccn1-c1ccc([N+](=O)[O-])cn1 [compound 51] | 245%
47 | CN(C)C(=O)Sc1nccn1-c1ncccc1[N+](=O)[O-] [compound 52] | 192%
